These results are taken from patent publication US20220340566A1, “BENZYL AMINE-CONTAINING 5,6-HETEROAROMATIC COMPOUNDS USEFUL AGAINST MYCOBACTERIAL INFECTION” (priority 2019, published 2022).

Series [1] can be described thus: Metabolic stability test in pooled human liver microsomes. It counts as in vitro ADME. The note with it: human liver microsomes 0.5 mg protein/mL, 1 mmol/L NADPH, 37° C., 30 minutes. Put shortly:
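Remaining-rate readout: parent compound left after 30 min versus 0 min (set as 100%), measured by LC/MS/MS or SPE/MS. Oxidative reaction ran at 37° C. with 1 mmol/L NADPH, 0.5 mg protein/mL pooled human microsomes, 50 mmol/L Tris-HCl pH 7.4 buffer.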

Series [2] relates to Mycobacterium avium ATCC700898. As to the kind of experiment: Determination of IC85 against M. avium (resazurin fluorescence). It is filed as cell-based. The note with it: Mycobacterium avium, ATCC700898, M. avium ATCC700898, CAMHB medium, 37° C., 3 days incubation then resazurin, fluorescence one day later; read-out: IC85.

`Cc1ccn2nc(C(F)(F)F)c(C(=O)NCc3ccc(N4CCN(c5ccc(OC(F)(F)F)cc5)[C@@H](C)C4)c(F)c3)c2c1.Cl` [Compound I-1-126]: in series [1], the “MS_h_% (remaining amount of compound after reaction, 0 minute = 100%)” value was 77%. In addition, the IC85 in series [2] was found to be 270 nM.
On to `CCc1nc2cc(F)ccn2c1C(=O)NCc1ccc(N2CCC(c3ccc(OC(F)(F)F)cc3)CC2)c(Cl)c1.Cl` [Compound I-1-127], for which, in series [1], the “MS_h_% (remaining amount of compound after reaction, 0 minute = 100%)” value is on record as 93%. Besides, the IC85 in series [2] was found to be 7.7 nM.
For the compound `COc1ccn2nc(C)c(C(=O)NCc3ccc(N4CCC(c5ccc(OC(F)(F)F)cc5)CC4)c(Cl)c3)c2c1.Cl` [Compound I-1-128], in series [1], the “MS_h_% (remaining amount of compound after reaction, 0 minute = 100%)” value amounted to 85%. In addition, the IC85 in series [2] worked out at 18 nM.
Consider `COc1ccn2nc(C)c(C(=O)NCc3cc(F)c(N4CCN(c5ccc(OC(F)(F)F)cc5)[C@@H](C)C4)c(F)c3)c2c1.Cl` [Compound I-1-129], for which the “MS_h_% (remaining amount of compound after reaction, 0 minute = 100%)” value in series [1] amounted to 80%. The IC85 in series [2] was determined as 6.8 nM.
`COc1ccn2nc(C)c(C(=O)NCc3ccc(N4CCN(c5ccc(OC(F)(F)F)cc5)[C@@H](C)C4)c(F)c3F)c2c1.Cl` [Compound I-1-130]: in series [1], the “MS_h_% (remaining amount of compound after reaction, 0 minute = 100%)” value is on record as 74%. In series [2], the IC85 amounted to 49 nM.
In the case of `COc1ccn2nc(C)c(C(=O)NCc3cc(F)c(N4CCN(c5ccc(OC(F)(F)F)cc5)[C@@H](C)C4)cc3F)c2c1.Cl` [Compound I-1-131], the “MS_h_% (remaining amount of compound after reaction, 0 minute = 100%)” value in series [1] is 73%. Further, the IC85 in series [2] is 45 nM.
The like results for `COc1ccn2nc(C)c(C(=O)NCc3ccc(N4CCN(c5ccc(OC(F)(F)F)cc5)[C@@H](C)C4)c(Cl)c3)c2c1.Cl` [Compound I-1-132] were, in that order, 62% and 14 nM.
For the compound `COc1ccn2nc(C)c(C(=O)NCc3cc(F)c(N4CCC(c5ccc(OC(F)(F)F)cc5)CC4)c(F)c3)c2c1.Cl` [Compound I-1-133], the “MS_h_% (remaining amount of compound after reaction, 0 minute = 100%)” value in series [1] is listed as 81%. In addition, the IC85 in series [2] worked out at 19 nM.
The like results for `CCc1nc2ccc(Cl)cn2c1C(=O)NCc1ccc(N2C[C@H](C)N(c3ccc(OCC(F)(F)F)nc3)C[C@H]2C)c(F)c1.Cl` [Compound I-1-134] were, in that order, 65% and 43 nM.
For the compound `CCc1nc2cc(F)ccn2c1C(=O)NCc1ccc(N2C[C@H](C)N(c3ccc(OCC(F)(F)F)nc3)C[C@H]2C)c(F)c1.Cl` [Compound I-1-135], the “MS_h_% (remaining amount of compound after reaction, 0 minute = 100%)” value in series [1] is 75%. Also, the IC85 in series [2] was 120 nM.
Regarding `CCc1nc2cc(F)ccn2c1C(=O)NCc1ccc(N2C[C@H](C)N(c3ccc(OC(F)(F)F)cc3)C[C@H]2C)c(F)c1.Cl` [Compound I-1-136], the “MS_h_% (remaining amount of compound after reaction, 0 minute = 100%)” value in series [1] came out at 86%. Moreover, in series [2], the IC85 turned out to be 16 nM.
In the same order, the values of `Cc1nc2ccc(Cl)cn2c1C(=O)NCc1ccc(N2C[C@H](C)N(c3ccc(OCC(F)(F)F)nc3)C[C@H]2C)c(F)c1.Cl` [Compound I-1-137] are 91% and 100 nM.
For the compound `CCc1nc2ccc(Cl)cn2c1C(=O)NCc1ccc(C2=CCC(c3ccc(OC(F)(F)F)cc3)CC2)c(F)c1.Cl` (stereo not drawn) [Compound I-1-138], the “MS_h_% (remaining amount of compound after reaction, 0 minute = 100%)” value in series [1] is reported as 83%. Besides, the IC85 in series [2] is 6.8 nM.
The like results for `CCc1nc2ccc(Cl)cn2c1C(=O)NCc1ccc(N2CCN(c3ccc(OC(F)(F)F)cc3)[C@@H](C)C2)c(Cl)c1.Cl` [Compound I-1-139] were, in that order, 61% and 9 nM.
As to `Cc1nc2ccc(Cl)cn2c1C(=O)NCc1ccc(N2CCN(c3ccc(OC(F)(F)F)cc3)[C@@H](C)C2)c(Cl)c1.Cl` [Compound I-1-140], the “MS_h_% (remaining amount of compound after reaction, 0 minute = 100%)” value in series [1] was 89%. Also, in series [2], the IC85 was 5.7 nM.
As to `CCc1nc2cc(F)ccn2c1C(=O)NCc1ccc(N2CCN(c3ccc(OC(F)(F)F)cc3)[C@@H](C)C2)c(Cl)c1.Cl` [Compound I-1-141], the “MS_h_% (remaining amount of compound after reaction, 0 minute = 100%)” value in series [1] was determined as 93%. In series [2], the IC85 is 2 nM.
In the case of `CCc1nc2ccc(Cl)cn2c1C(=O)NCc1ccc(C2CCN(c3ccc(OCC(F)(F)F)nc3)CC2)cc1F.Cl` [Compound I-1-142], the “MS_h_% (remaining amount of compound after reaction, 0 minute = 100%)” value in series [1] worked out at 71%. Also, the IC85 in series [2] worked out at 30 nM.
Regarding `CCOc1ccc(N2CCC(c3ccc(CNC(=O)c4c(CC)nc5ccc(Cl)cn45)c(F)c3)CC2)cc1.Cl` [Compound I-1-143], the “MS_h_% (remaining amount of compound after reaction, 0 minute = 100%)” value in series [1] is on record as 77%. The IC85 in series [2] is 23 nM.
Consider `CCc1nc2ccc(Cl)cn2c1C(=O)NCc1ccc(C2CCN(c3ccc(C(C)(C)C)cc3)CC2)cc1F.Cl` [Compound I-1-144], for which the “MS_h_% (remaining amount of compound after reaction, 0 minute = 100%)” value in series [1] worked out at 67%. Moreover, in series [2], the IC85 stood at 17 nM.
In the case of `CCCCOc1ccc(N2CCC(c3ccc(CNC(=O)c4c(CC)nc5ccc(Cl)cn45)c(F)c3)CC2)cc1.Cl` [Compound I-1-145], in series [1], the “MS_h_% (remaining amount of compound after reaction, 0 minute = 100%)” value came out at 80%. Moreover, the IC85 in series [2] came to 16 nM.
With `CCc1nc2cc(F)ccn2c1C(=O)NCc1ccc(C2CCN(c3ccc(OCC(F)(F)F)nc3)CC2)cc1F.Cl` [Compound I-1-146], in series [1], the “MS_h_% (remaining amount of compound after reaction, 0 minute = 100%)” value worked out at 85%. Further, in series [2], the IC85 worked out at 26 nM.
On to `CCOc1ccc(N2CCC(c3ccc(CNC(=O)c4c(CC)nc5cc(F)ccn45)c(F)c3)CC2)cc1.Cl` [Compound I-1-147], for which the “MS_h_% (remaining amount of compound after reaction, 0 minute = 100%)” value in series [1] is reported as 91%. Besides, the IC85 in series [2] was 8.3 nM.
With `CCc1nc2cc(F)ccn2c1C(=O)NCc1ccc(C2CCN(c3ccc(C)cc3)CC2)cc1F.Cl` [Compound I-1-148], the “MS_h_% (remaining amount of compound after reaction, 0 minute = 100%)” value in series [1] stood at 73%. Besides, in series [2], the IC85 is 5.4 nM.
On to `CCc1nc2cc(F)ccn2c1C(=O)NCc1ccc(C2CCN(c3ccc(C(C)(C)C)cc3)CC2)cc1F.Cl` [Compound I-1-149], for which the “MS_h_% (remaining amount of compound after reaction, 0 minute = 100%)” value in series [1] came out at 63%. Also, the IC85 in series [2] turned out to be 15 nM.
In the same order, the values of `CCc1nc2cc(F)ccn2c1C(=O)NCc1ccc(C2CCN(c3ccc(C(F)(F)F)cc3)CC2)cc1F.Cl` [Compound I-1-150] are 65% and 2.4 nM.
Turning to `CCCCOc1ccc(N2CCC(c3ccc(CNC(=O)c4c(CC)nc5cc(F)ccn45)c(F)c3)CC2)cc1.Cl` [Compound I-1-151], the “MS_h_% (remaining amount of compound after reaction, 0 minute = 100%)” value in series [1] worked out at 88%. The IC85 in series [2] was 10 nM.
Consider `Cc1nn2ccc(F)cc2c1C(=O)NCc1ccc(N2CCN(c3ccc(OC(F)(F)F)cc3)[C@@H](C)C2)c(F)c1.Cl` [Compound I-1-152], for which the “MS_h_% (remaining amount of compound after reaction, 0 minute = 100%)” value in series [1] amounted to 87%. In series [2], the IC85 is 110 nM.
`COc1ccn2nc(C)c(C(=O)NCc3ccc(N4C[C@H](C)N(c5ccc(OC(F)(F)F)cc5)C[C@H]4C)c(F)c3)c2c1.Cl` [Compound I-1-153]: the “MS_h_% (remaining amount of compound after reaction, 0 minute = 100%)” value in series [1] is given as 72%. For the same compound, the IC85 in series [2] was 31 nM.
The like results for `Cc1nc2cc(F)ccn2c1C(=O)NCc1ccc(N2CCC(c3ccc(OC(F)(F)F)cc3)CC2)c(F)c1` [Compound I-2-1] were, in that order, 106% and 16 nM.
For `COc1ccn2c(C(=O)NCc3ccc(N4CCN(c5ccc(OC(F)(F)F)cc5)[C@@H](C)C4)c(F)c3)c(C)nc2c1` [Compound I-2-2], the “MS_h_% (remaining amount of compound after reaction, 0 minute = 100%)” value in series [1] is 97.7%. Further, in series [2], the IC85 worked out at 370 nM.
